Assay [1] deals with T1, IRAK4 (Homo sapiens, UniProt Q9NWZ3).
T1 construct: endogenous in cells; host or cells: THP-1 cells
T1 sequence (Q9NWZ3 1-460): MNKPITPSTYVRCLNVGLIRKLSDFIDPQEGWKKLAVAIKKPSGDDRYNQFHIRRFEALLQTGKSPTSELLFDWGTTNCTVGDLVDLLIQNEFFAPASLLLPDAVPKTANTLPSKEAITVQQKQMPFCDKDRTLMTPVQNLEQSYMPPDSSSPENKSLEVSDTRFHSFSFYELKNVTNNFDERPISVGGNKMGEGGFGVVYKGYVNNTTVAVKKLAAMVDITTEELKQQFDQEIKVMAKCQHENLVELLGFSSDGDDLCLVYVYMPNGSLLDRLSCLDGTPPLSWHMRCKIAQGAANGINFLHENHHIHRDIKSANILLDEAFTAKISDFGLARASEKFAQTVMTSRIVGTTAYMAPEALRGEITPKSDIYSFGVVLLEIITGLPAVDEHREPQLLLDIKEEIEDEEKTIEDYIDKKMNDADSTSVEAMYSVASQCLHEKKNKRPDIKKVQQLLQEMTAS
Nature of the assay: ALE THP1 HTRF (Advanced Lipoxidation End Product THP1 Homogeneous Time Resolved Fluorescence). Type of assay: cell-based. As to conditions: THP1 cells. In a few lines:
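Cells lysed 45 min at room temperature; lysates normalized to total protein by BCA. Total IRAK4 detected by HTRF sandwich (anti-IRAK4-d2 plus anti-IRAK4-cryptate), incubated overnight in the dark at room temperature, read on a time-resolved fluorescence plate reader.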
A general note: TR-FRET usually uses a lanthanide donor and a delayed reading to cut background.

Assay [2] addresses T1, IRAK4. Nature of the assay: LVL THP1 HTRF (THP1 Homogeneous Time Resolved Fluorescence). Type of assay: cell-based. As to conditions: THP1 cells, 18 h incubation with compound; for DC50: read-out: LVL THP1 HTRF EC50. In a few lines: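 THP-1 cells in phenol red-free RPMI with 10% FBS were dosed with compound (20 nL in DMSO) for 18 h at 37° C. After 2 h lysis, IRAK4 was detected with anti-IRAK4-d2/anti-IRAK4-K HTRF antibodies for 18 h at room temperature and read at 665/615 nm; a parallel CTG plate was run.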

Bounds are passed on as bounds.

As usually defined, the EC50 is the concentration at which the effect is half-maximal.

Turning to `C[C@H](C#N)Nc1cc(-n2ncc3cc(C#N)cnc32)ncc1C(=O)N[C@H]1CC[C@H](CCN2CCN(c3ccc(C4CCC(=O)NC4=O)cc3)C3(CCC3)C2)CC1` (some centres unmarked) [P-182], on IRAK4 [1], the “ALE THP1 HTRF YMIN” value stood at 9.4% and a half-maximal response (EC50) required 5 nM. On IRAK4 [2], the “LVL THP1 HTRF YMIN” value was 6.3% and the DC50 worked out at 415 nM.

For `C[C@H](C#N)Nc1cc(-n2ncc3cc(C#N)c(N)nc32)ncc1C(=O)N[C@H]1CC[C@H](CCN2CCN(c3ccc(C4CCC(=O)NC4=O)cc3Cl)[C@H](C)C2)CC1` (some centres unmarked) [P-168], at IRAK4 [1], the “ALE THP1 HTRF YMIN” value is recorded as 5.5% and the midpoint of the response, the EC50, lay at 6 nM. For the same compound, on IRAK4 [2], the “LVL THP1 HTRF YMIN” value is under 0.5% and the DC50 turned out to be 3 nM.

In the case of `C[C@H](C#N)Nc1cc(-n2ccc3cnc(N)nc32)ncc1C(=O)N[C@H]1CC[C@H](CCN2CCN(c3ccc(C4CCC(=O)NC4=O)cc3)CC2)CC1` (some centres unmarked) [P-163], on IRAK4 [1], the “ALE THP1 HTRF YMIN” value amounted to 8.4% and a half-maximal effect (EC50) was put at 12 nM. For the same compound, on IRAK4 [2], the “LVL THP1 HTRF YMIN” value is on record as under 0.5% and the DC50 amounted to 26 nM.

For `N#Cc1cc2cnn(-c3cc(NC4CC4)c(-n4cc([C@H]5CC[C@H](CCN6CCN(c7ccc(C8CCC(=O)NC8=O)cc7)CC6)CC5)nn4)cn3)c2nc1N` (some centres unmarked) [P-162], on IRAK4 [1], the “ALE THP1 HTRF YMIN” value came to 6.4% and a half-maximal effect (EC50) was put at 3 nM. On IRAK4 [2], the “LVL THP1 HTRF YMIN” value amounted to 0.6% and the DC50 was 8 nM.

On to `C[C@H](C#N)Nc1cc(-n2ncc3cnc(N)nc32)ncc1C(=O)N[C@H]1CC[C@H](CCN2CCN(c3ccc(C4CCC(=O)NC4=O)cc3)CC2)CC1` (some centres unmarked) [P-159], for which, at IRAK4 [1], the “ALE THP1 HTRF YMIN” value stood at 6.1% and it took 7 nM to reach a half-maximal effect (EC50). Moreover, on IRAK4 [2], the “LVL THP1 HTRF YMIN” value is on record as under 0.5% and the DC50 came to 18 nM.

In the case of `C[C@H](C#N)Nc1cc(-n2ncc3cc(C#N)c(N)nc32)ncc1C(=O)N[C@H]1CC[C@H](CCN2CCN(c3ccc(C4CCC(=O)NC4=O)cc3)C(=O)C2)CC1` (some centres unmarked) [P-177], on IRAK4 [1], the “ALE THP1 HTRF YMIN” value is 6.7% and the EC50 turned out to be 4 nM. Besides, on IRAK4 [2], the “LVL THP1 HTRF YMIN” value was 6.4% and the DC50 is 32 nM.

Take `C[C@H](C#N)Nc1cc(-n2ncc3cc(C#N)cnc32)ncc1C(=O)N[C@H]1CC[C@H](CCN2C[C@H]3C[C@@H](C2)N3c2ccc(C3CCC(=O)NC3=O)cc2)CC1` (some centres unmarked) [P-180]: on IRAK4 [1], the “ALE THP1 HTRF YMIN” value worked out at 7.5% and the concentration giving a half-maximal response (EC50) came out at 6 nM. Also, on IRAK4 [2], the “LVL THP1 HTRF YMIN” value is recorded as 18.9% and the DC50 stood at 702 nM.

Turning to `C[C@H](C#N)Nc1cc(-n2ncc3cc(C#N)cnc32)ncc1-n1cc(C2CCC(CCN3CCN(c4ccc(C5CCC(=O)NC5=O)cc4)[C@@H](C)C3)CC2)nn1` (stereo in doubt) [P-156], at IRAK4 [1], the “ALE THP1 HTRF YMIN” value is listed as 10.1% and the EC50 came to 1 nM. For the same compound, on IRAK4 [2], the “LVL THP1 HTRF YMIN” value was 2.0% and the DC50 was found to be 8 nM.

For `C[C@H](C#N)Nc1cc(-n2ncc3cc(C#N)cnc32)ncc1C(=O)N[C@H]1CC[C@H](CCN2[C@@H]3C[C@H]2CN(c2ccc(C4CCC(=O)NC4=O)cc2)C3)CC1` (some centres unmarked) [P-183], on IRAK4 [1], the “ALE THP1 HTRF YMIN” value was 27.9% and the EC50 worked out at 63 nM. For the same compound, on IRAK4 [2], the “LVL THP1 HTRF YMIN” value is under 0.5% and the DC50 was found to be 12 nM.

In the case of `COc1cc(C2CCC(=O)NC2=O)ccc1N1CCN(CC[C@H]2CC[C@H](NC(=O)c3cnc(-n4ncc5cc(C#N)c(N)nc54)cc3N[C@H](C)C#N)CC2)C[C@H]1C` (some centres unmarked) [P-167], on IRAK4 [1], the “ALE THP1 HTRF YMIN” value was found to be 5.9% and the EC50 came out at 2 nM. Moreover, on IRAK4 [2], the “LVL THP1 HTRF YMIN” value is under 0.5% and the DC50 is 5 nM.

Consider `C[C@H](C#N)Nc1cc(-n2ncc3cc(C#N)c(N)nc32)ncc1C(=O)N[C@H]1CC[C@H](CCN2CCN(c3ccc(C4CCC(=O)NC4=O)cc3)[C@@H](C)C2)CC1` (some centres unmarked) [P-178], for which, at IRAK4 [1], the “ALE THP1 HTRF YMIN” value was determined as 7.5% and the EC50 was 12 nM. On IRAK4 [2], the “LVL THP1 HTRF YMIN” value was 0.8% and the DC50 was found to be 1 nM.

The values are drawn from US20240109881A1, “Heteroaryl Compounds as Ligand Directed Degraders of IRAK4” (Bristol-Myers Squibb Company, priority 2022, published 2024).
